Legend:
[1] = test system: Maize; experiment: Sand-based maize pot experiment; type: in vivo, maize cultivar B104; conditions: low phosphate
Method: All Arabidopsis plant experiments were performed using the Arabidopsis thaliana Columbia-0 background. The Arabidopsis pSPX1::GUS line is described in the Plant Journal 2008, 54: 965-975. For rice, the cultivar Nipponbare was used. For maize, the cultivars DKC 2931 and B104 were used for regular pot experiments and sand-based pot experiments, respectively. For soybean, the cultivar Primus was used. […] The medium was solidified due to the addition of 0.6% Gelrite, unless stated otherwise. In case of vertical plates (root length and root hair measurements), the medium was supplied with 0.5% of sucrose and 1 μM (low phosphate, 1 μM KH2PO4, 9.9 mM KCl), 10 μM (low phosphate 10 μM KH2PO4, 9.9 mM KCl) or 1.25 mM KH2PO4 (high phosphate). Arabidopsis seeds were stratified for 2 days at 4° C. before germination. Seedlings were germinated in climate-controlled growth chambers at 22° C. under continuous light (100 μmol m^−2 s^−1). Husked rice seeds were germinated on wetted Whatman paper for 2 days at 37° C. and then transferred to Sterivent boxes or square Petri dishes with solid medium. Maize and soybean seeds were wetted 24 hours at room temperature prior to sowing in pots.
Regular Arabidopsis, soybean and maize pot experiments used an unfertilized potting soil, which was supplemented at the start of the experiment with 50 ml H2O containing 0.25 g/l NH4NO3 and 0.44 g/l (high phosphate) or no (maize and soybean) or 0.11 g/l KH2PO (Arabidopsis) for low phosphate conditions. For the sand-based maize pot experiment, sand was supplemented with 50 ml H2O containing 0.25 g/l NH4NO3 and 0.38 g/l (high phosphate) or 0.02 g/l (low phosphate) KH2PO4. Potassium was balanced via addition of KCl. Compound concentration was 10 μM, calculated based on the total water content after watering, and was added at the start of the experiment (Arabidopsis) or once a week (maize). Indexed chlorophyll contents were received via a SPAD 502 Plus Chlorophyll Meter. All parameters in the sand experiment, except the rate of leaf 4 (measured the first 4 days after emergence), were measured 19 days after sowing. Measurements in the pot experiments with potting soil were done after 4 weeks of growth, except for leaf 5, which was measured at 26 days. One long-term maize pot experiment was conducted with the DKC 2931 (2.5 months) and B104 (3 months) cultivars on the PHENOVISION phenotyping platform as described in Frontiers in Plant Science 2021, 12: 640914, except that an unfertilized potting soil was used and that plants were fertilized with a low-phosphate Hoagland solution. The 2.5× overconcentrated low-phosphate Hoagland solution contained 0.034 g/l KH2PO and 200 mL of this solution was applied twice a week. […]

[2] = test system: Arabidopsis; experiment: Arabidopsis pot experiment (rosette size, soil phosphate, anthocyanin); type: in vivo, Arabidopsis thaliana
Method: Regular Arabidopsis, soybean and maize pot experiments used an unfertilized potting soil, which was supplemented at the start of the experiment with 50 ml H2O containing 0.25 g/l NH4NO3 and 0.44 g/l (high phosphate) or no (maize and soybean) or 0.11 g/l KH2PO (Arabidopsis) for low phosphate conditions. For the sand-based maize pot experiment, sand was supplemented with 50 ml H2O containing 0.25 g/l NH4NO3 and 0.38 g/l (high phosphate) or 0.02 g/l (low phosphate) KH2PO4. Potassium was balanced via addition of KCl. Compound concentration was 10 μM, calculated based on the total water content after watering, and was added at the start of the experiment (Arabidopsis) or once a week (maize). Indexed chlorophyll contents were received via a SPAD 502 Plus Chlorophyll Meter. All parameters in the sand experiment, except the rate of leaf 4 (measured the first 4 days after emergence), were measured 19 days after sowing. Measurements in the pot experiments with potting soil were done after 4 weeks of growth, except for leaf 5, which was measured at 26 days. One long-term maize pot experiment was conducted with the DKC 2931 (2.5 months) and B104 (3 months) cultivars on the PHENOVISION phenotyping platform as described in Frontiers in Plant Science 2021, 12: 640914, except that an unfertilized potting soil was used and that plants were fertilized with a low-phosphate Hoagland solution. The 2.5× overconcentrated low-phosphate Hoagland solution contained 0.034 g/l KH2PO and 200 mL of this solution was applied twice a week. 1.4 mL of a 10 mM compound solution was added each two weeks to each pot, corresponding to 9.6 mg/g nutrients. 13 plants per condition were used. During the experiment, pictures were taken twice a week for each plants from 6 different angles and the top. […] Extraction and quantification of anthocyanin levels was carried out according to The Plant cell 2013, 25:1641-1656. Anthocyanin levels were quantified by measuring absorption at 530 and 657 nm using a spectrophotometer and normalized to fresh weight input, and expressed relative to the low phosphate control. […]

CC1CN(CC(=O)c2c(N)n(C)c(=O)n(C)c2=O)c2ccccc2O1 (stereo not shown) [Compound 8, 6-amino-1,3-dimethyl-5-[2-(2-methyl-2,3-dihydro-1,4-benzoxazin-4-yl)acetyl]pyrimidine-2,4-dione]
Plant height ([1]; 10 μM once a week, 19 days after sowing, control 21): 28 cm | Indexed chlorophyll content ([1]; 19 days after sowing, SPAD, control 28): 32 | Crown root number ([1]; 19 days after sowing, control 2): 7 | Growth rate of leaf 4 ([1]; first 4 days after emergence, control 2.04): 2.46 cm/day | Relative anthocyanin level ([2]; 4-week old plant, relative to low phosphate control = 1): 0.6 | Phosphate level in soil (relative value) ([2]; after 4 weeks of growth, relative to low phosphate control = 1): 0.8 | Rosette size ([2]; low phosphate, 10 μM, 4 weeks, control 17): 25 cm^2
